Drawing on the METLIN SMRT retention time set (Domingo-Almenara et al. 2019), this text covers RP-LC retention time for 79 compounds.

This data set is described as follows: gradient 5% acetonitrile 3 min, to 50% in 2 min, to 85% in 15 min, held 3 min, 100 µL/min. The following applies: column: Zorbax Extend-C18 2.1 x 50 mm; eluents: water / acetonitrile, 0.1% formic acid. The procedure, abridged: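 Values are retention times taken from adduct peaks that software picked and an analyst inspected. The pure standards were run as mixtures of ~100 molecules on HPLC linked to a quadrupole time-of-flight mass spectrometer, in positive and negative ionization mode. A Zorbax Extend-C18 column (2.1 × 50 mm, 1.8 μm) was used at 100 μL/min with water and acetonitrile, each including 0.1% formic acid.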
As to `COc1ccc(CNS(=O)(=O)c2c(C)sc(C)c2-c2cc(C(F)(F)F)on2)cc1`, the RP-LC retention time was 1150 s.

In turn, `O=C(CSCC(=O)N1CCOCC1)Nc1nc(-c2ccc3c(c2)OCO3)cs1` had an RP-LC retention time of 681 s.

`N#Cc1ccc(-c2nc(C3CC(=O)N(c4ccc(F)cc4)C3)no2)cc1` (centres undefined): the RP-LC retention time was 897 s.

`OC(CN1CCN(c2cccc(Cl)c2)CC1)c1ccc2c(c1)OCO2` (centres undefined): the RP-LC retention time amounted to 690 s.

The compound `COc1ccc2nc(C(=O)N3CCN(c4ccc(Cl)cc4)CC3)cn2n1` came in with an RP-LC retention time of 900 s.

Take `CC(C)Cn1cc(CCNS(=O)(=O)c2cccc(Br)c2)c2cccnc21`: the RP-LC retention time is 990 s.

In turn, `CCCc1ccc(S(=O)(=O)Nc2ccc3nc(S(=O)(=O)CCC)sc3c2)cc1` gave an RP-LC retention time of 1080 s.

`O=C1CC(c2nc(-c3ccccc3F)no2)CN1c1ccc2c(c1)OCO2` (centres undefined) gave an RP-LC retention time of 865 s.

In the case of `Cc1ccc(C(=O)N2CCc3[nH]cnc3C23CCCC3)c(C)c1`, the RP-LC retention time was found to be 564 s.

Compound `CCc1ccc(NS(=O)(=O)c2cc(-c3c(CC)noc3NC(C)=O)ccc2C)cc1` displayed an RP-LC retention time of 886 s.

Take `CN(C)C1(CC2CC2)CCN(C(=O)c2ccoc2)CC1`: the RP-LC retention time was determined as 556 s.

`CC(C)N1C(=O)c2cccnc2Sc2cc(NC(=O)c3c(F)cccc3F)ccc21` showed an RP-LC retention time of 865 s.

With `CN(C)C[C@@H]1CN(c2ncccn2)C[C@H]1NC(=O)c1ccc2ncccc2c1`, the RP-LC retention time came out at 557 s.

As to `COC(=O)c1cc(C)nc2c1c(=O)n(Cc1cccc(OC)c1)c(=O)n2C`, the RP-LC retention time worked out at 970 s.

In turn, `CC(NC(=O)c1ccc2c(c1)nc1n2CCN(Cc2ccccc2)C1=O)c1ccccn1` (centres undefined) displayed an RP-LC retention time of 622 s.

`CCCn1ccc2sc(C)c(C(=O)N3CCN(c4ccc(OC)cc4)CC3)c2c1=O` showed an RP-LC retention time of 762 s.

Regarding `O=C1CCCc2cc(S(=O)(=O)N3CCC(C(=O)N4CCN(c5ccccc5)CC4)CC3)ccc2N1`, the RP-LC retention time is 754 s.

Turning to `CCc1ccc(S(=O)(=O)N2CCN(c3ccc4nncn4n3)CC2)s1`, the RP-LC retention time was found to be 693 s.

In the case of `O=C(NC1CCN(c2cc(-c3ccccc3)[nH]n2)CC1)c1ccoc1`, the RP-LC retention time came to 676 s.

`COC(=O)C1=CN(c2cc(OC)ccc2OC)c2cc(F)ccc2S1(=O)=O` yielded an RP-LC retention time of 819 s.

Compound `COc1ccc(N2C(=O)CCC(C(=O)NC(C)C)C2c2ccc(OC)c(OC)c2)cc1` (centres undefined) displayed an RP-LC retention time of 674 s.

With `CN1CCCCCC(O)c2cc(C(=O)NC3CCCCC3)ccc21` (centres undefined), the RP-LC retention time turned out to be 654 s.

The compound `CSc1ccccc1C(=O)NCC1(c2ccc(F)cc2)CC1` displayed an RP-LC retention time of 875 s.

On to `O=C(NC1CC1)[C@@H]1C[C@H](Oc2ccccc2)CN1C(=O)c1ccco1`, for which the RP-LC retention time was 700 s.

The compound `O=C(c1ccc(Cl)cc1)N1CCCN(c2nnc3ccccn23)CC1` came in with an RP-LC retention time of 650 s.

Turning to `COc1ccc(CN2C=C(C(=O)OCc3noc(C4CCCCC4)n3)C(C)=NS2(=O)=O)cc1`, the RP-LC retention time is 1150 s.

`O=C(O)c1ccc2c(c1)nc(Nc1cccc(Cl)c1)c1ccncc12` returned an RP-LC retention time of 845 s.

Take `CCOc1ccc(S(=O)(=O)N2CCC(C(=O)NCCOC)CC2)cc1`: the RP-LC retention time is 709 s.

`CCCC(=O)Nc1nnc(SCc2nnc(-c3ccc4c(c3)OCO4)o2)s1` returned an RP-LC retention time of 794 s.

The compound `Cc1nn(C)cc1S(=O)(=O)NCCc1c[nH]c2ccccc12` returned an RP-LC retention time of 683 s.

`Cc1nnc(-c2nnc(NCC(C)C)c3ccccc23)o1` displayed an RP-LC retention time of 652 s.

`CC[C@@]1(O)C(=O)OCc2c1cc1n(c2=O)Cc2cc3c(NC(=O)CN)cccc3nc2-1`: the RP-LC retention time came to 626 s.

`Cc1ccc(C)c(NC(=O)C(=O)NCC(c2ccc3c(c2)CCCN3C)N2CCCC2)c1` (centres undefined) had an RP-LC retention time of 746 s.

On to `CCOc1ccc2nc(C(=O)Nc3ccc(N4CCOCC4)cc3)cn2n1`, for which the RP-LC retention time came out at 767 s.

`CCOc1cccc(-c2noc(Cn3c(=O)n(Cc4ccc(F)cc4)c(=O)c4sccc43)n2)c1` registered an RP-LC retention time of 1210 s.

The compound `CC(C)c1ccc(NC(=O)C2CCCN(c3nc4ccccc4nc3C(F)(F)F)C2)cc1` (centres undefined) displayed an RP-LC retention time of 957 s.

`COc1ccc(CC(=O)N2C[C@@H]3C[C@H]2C[C@@H]3NC(=O)c2ccccc2)c(Cl)c1` displayed an RP-LC retention time of 738 s.

`C[C@H]1CN(C(=O)c2ccc(C#N)cc2)C[C@@H]1c1nc(-c2ccncc2)no1` yielded an RP-LC retention time of 717 s.

The compound `Cc1nc2ncnn2c(N2CCC(C)CC2)c1C` displayed an RP-LC retention time of 1020 s.

With `CCOC(=O)c1ccc(NC(=O)C2CCCN(S(C)(=O)=O)C2)cc1` (centres undefined), the RP-LC retention time came to 762 s.

Turning to `CC(C)Cn1c(CCNC(=O)c2ccc(C#N)cc2)nc2cccnc21`, the RP-LC retention time amounted to 709 s.

The compound `Cc1c(C#N)c2ccccc2n1CC(=O)NCc1ccc2c(c1)OCCCO2` yielded an RP-LC retention time of 856 s.

In turn, `CCc1ccc(C2=C(C)C(N3CCCN(C(=O)c4cccs4)CC3)=NS2(=O)=O)cc1` displayed an RP-LC retention time of 893 s.

The compound `Cc1ccc(OCC(=O)Nc2ccc(-c3nc(-c4cc(C)ccc4C)co3)cc2)cc1` showed an RP-LC retention time of 888 s.

As to `Cc1cc(F)ccc1NS(=O)(=O)c1cc(-c2cc(C(F)(F)F)on2)sc1C`, the RP-LC retention time came to 1160 s.

`CN(C)CCNC(=O)c1csc(-c2ccc(N3CCCC3)nc2)n1` yielded an RP-LC retention time of 548 s.

In the case of `Cc1ccc(CN(C)Cc2cc(=O)n3cc(Cl)ccc3n2)cc1`, the RP-LC retention time turned out to be 629 s.

Compound `CC(C)NC(=O)N1CC(c2nc(-c3ccc(F)cc3)no2)C2(CCOCC2)C1` (centres undefined) gave an RP-LC retention time of 815 s.

For the compound `CCOc1ccc(NC(=O)c2cc(=O)c3cc(CC)ccc3o2)c2cccnc12`, the RP-LC retention time worked out at 693 s.

The compound `O=C(Nc1ccc(Cl)cc1)c1cn(CC(O)c2ccc3c(c2)OCO3)nn1` (centres undefined) returned an RP-LC retention time of 841 s.

The compound `CCc1ccc(CNC(=O)C2CC(=O)N(c3ccc4oc(C)nc4c3)C2)cc1` (centres undefined) yielded an RP-LC retention time of 671 s.

With `C#CCSc1nc2ccc([N+](=O)[O-])cc2s1`, the RP-LC retention time was determined as 935 s.

`COc1ccc(-c2cn3c(CC(=O)N4CCc5ccccc54)csc3n2)cc1OC` had an RP-LC retention time of 748 s.

`CCOc1ccc(N2CC(c3nc(-c4ccncc4)no3)CC2=O)cc1` (centres undefined): the RP-LC retention time stood at 736 s.

`Cc1cc2n(n1)CCCN2C(=O)CCC(=O)NCc1ccc(N(C)C)cc1` displayed an RP-LC retention time of 609 s.

For `Cc1ccc(CN2N=C(C(=O)N3CCOCC3)S(=O)(=O)c3cc(Cl)ccc32)cc1`, the RP-LC retention time amounted to 896 s.

Compound `COc1ccccc1NC(=O)N1CCC2(CC1)NC(=O)c1ccc(Cl)cc1N2` returned an RP-LC retention time of 775 s.

In turn, `O=C(c1ccc2nccnc2c1)N1CCC(c2nnc(C(F)(F)F)o2)CC1` gave an RP-LC retention time of 653 s.

Turning to `Cc1ccc(NC(=O)N2CCC(n3cnc4ccc(C)cc4c3=O)CC2)c(Cl)c1`, the RP-LC retention time was found to be 865 s.

Consider `CCCNc1cc(N2CCC(CCC(=O)NCc3ccccc3OC)CC2)ncn1`, for which the RP-LC retention time came out at 684 s.

Regarding `COc1cccc(-c2cc(C3CCN(C(=O)NC4CCCC4)CC3)[nH]n2)c1`, the RP-LC retention time worked out at 790 s.

In turn, `CCC(C)N(CC(=O)N1CCc2sccc2C1COc1ccccc1C)C(=O)COC` (centres undefined) registered an RP-LC retention time of 942 s.

Take `CO[C@H]1C(=O)N(C(C)C)[C@H]1C1CCN(S(=O)(=O)c2cccc3nsnc23)CC1`: the RP-LC retention time was found to be 831 s.

In turn, `CCc1ccc(C(=O)Nc2ccc3c(c2)Sc2ncccc2C(=O)N3CC)cc1` returned an RP-LC retention time of 936 s.

Take `COc1ccc(-c2nnc(-c3ccc(OC)c(S(=O)(=O)N(C)C)c3)o2)cc1OC`: the RP-LC retention time came out at 807 s.

Turning to `CNC(=O)c1ccsc1NC(=O)c1cn(C)nc1OC`, the RP-LC retention time was found to be 616 s.

The compound `COc1ccc(NC(=O)N2CCC(n3c(-c4ccoc4)nc4cccnc43)C2)cc1F` (centres undefined) had an RP-LC retention time of 725 s.

On to `CCc1nnc2ccc(-c3noc(-c4cccc(Cl)c4)n3)cn12`, for which the RP-LC retention time worked out at 1070 s.

In the case of `O=C(C1CC(=O)N(c2ccc3c(c2)CCN3C(=O)C2CC2)C1)N1CCCCCC1` (centres undefined), the RP-LC retention time was determined as 750 s.

In turn, `Cc1ccc(NC(=O)c2cccn2Cc2noc(C3CC3)n2)c(Cl)c1` gave an RP-LC retention time of 1030 s.

Take `CCc1cccc(NC(=O)Cn2nc(N3CCCC3)c3ccccc3c2=O)c1`: the RP-LC retention time came to 1000 s.

`Cc1nc2c(c(C)c1CCC(=O)NCC1CCN(CC(C)C)C1)c(=O)n(C)c(=O)n2C` (centres undefined): the RP-LC retention time was found to be 610 s.

Take `CCOc1ccc(-c2noc(Cn3ccn4nc(-c5ccccc5C)cc4c3=O)n2)cc1`: the RP-LC retention time turned out to be 1160 s.

In the case of `CC(C)(CO)NCc1ccc(-c2cccc(C(F)(F)F)c2)o1`, the RP-LC retention time came to 660 s.

`CN(Cc1cccs1)C(=O)Nc1ccccc1` had an RP-LC retention time of 833 s.

`O=C(Cc1cccs1)N1CCc2[nH]nc(-c3ccccc3)c2C1` displayed an RP-LC retention time of 839 s.

`CC(=O)N1CCC(C(=O)Nc2cccc(OCc3nnc(-c4ccccc4)o3)c2)CC1` returned an RP-LC retention time of 716 s.

The compound `Cc1ccccc1-c1noc(CN2C(=O)COc3cc(Cl)ccc32)n1` registered an RP-LC retention time of 1150 s.

With `Cn1c(=O)sc2cc(S(=O)(=O)N3CCC(C(=O)N4CCOCC4)CC3)ccc21`, the RP-LC retention time came out at 663 s.
